Test results taken from patent publication US20170327471A1, “Aryl sulphide and aryl sulphoxide derivatives having C-C-attached uracils as pesticides” (BAYER CROPSCIENCE AKTIENGESELLSCHAFT, priority 2014, published 2017).
Read-outs that look alike come from different tables or passages of the source.

Tests used:
[1] = logP by reversed-phase HPLC (EEC Directive 79/831 Annex V.A8); type: physicochemical; conditions: reversed-phase C18 HPLC column
Description: The logP values were determined in accordance with EEC Directive 79/831 Annex V.A8 by HPLC (High Performance Liquid Chromatography) using reversed-phase columns (C 18) by the following methods:
^[a] The LC-MS determination in the acidic range was effected at pH 2.7 with 0.1% aqueous formic acid and acetonitrile (contains 0.1% formic acid) as eluents; linear gradient from 10% acetonitrile to 95% acetonitrile. Called logP (HCOOH) in the table.
^[b] LC-MS determination in the neutral range was effected at pH 7.8 with 0.001 molar aqueous ammonium hydrogencarbonate solution and acetonitrile as eluents; linear gradient from 10% acetonitrile to 95% acetonitrile. Called logP (neutral) in the table.
Calibration was effected with unbranched alkan-2-ones (having 3 to 16 carbon atoms) with known logP values (logP values determined on the basis of the retention times by linear interpolation between two successive alkanones).

Tetranychus urticae [2] = assay: Tetranychus urticae spray test, OP-resistant (bean leaf discs); type: in vivo; conditions: application rate 500 g/ha, after 6 days
Description: 4. Tetranychus urticae—Spray Test, OP-Resistant Solvent: 78.0 parts by weight of acetone • • 1.5 parts by weight of dimethylformamide Emulsifier: alkylaryl polyglycol ether
(§1) To produce a suitable preparation of active compound, 1 part by weight of active compound is dissolved using the stated parts by weight of solvent and made up with water containing an emulsifier concentration of 1000 ppm until the desired concentration is attained. To produce further test concentrations, the preparation is diluted with emulsifier-containing water.
Discs of bean leaves (Phaseolus vulgaris) infested with all stages of the greenhouse red spider mite (Tetranychus urticae) are sprayed with an active compound preparation of the desired concentration.
After 6 days, the efficacy in % is determined. 100% means that all the spider mites have been killed; 0% means that none of the spider mites have been killed.

Meloidogyne incognita [3] = assay: Meloidogyne incognita test (soil drench, lettuce); type: in vivo; conditions: application rate 8 ppm, after 21 days, lettuce in soil (loamy sand)
Description: 7. Meloidogyne incognita—Test Solvent: 7 parts by weight of dimethylformamide Emulsifier: 2.5 parts by weight of alkylaryl polyglycol ether To produce a suitable preparation of active compound, 1 part by weight of active compound is mixed with the stated amounts of solvent and emulsifier, and the concentrate is diluted with water to the desired concentration, where the volume of soil to be drenched has to be taken into account. Here, it has to be made sure that a concentration of 20 ppm of emulsifier in the soil is not exceeded. To produce further test concentrations, the mixture is diluted with water. Pots filled with soil (loamy sand) are watered with the active compound solution. An egg/larvae suspension of the southern root-knot nematode (Meloidogyne incognita) is added, lettuce seeds are scattered on the surface of the soil and covered with quartz sand. The lettuce seeds germinate and the plants develop. The galls develop on the roots. After 21 days, the nematicidal efficacy in % is determined by the formation of galls. 100% means that no galls were found; 0% means that the number of galls on the treated plants corresponds to that of the untreated control.

Tetranychus urticae [4] = assay: Tetranychus urticae drench test, OP-resistant; type: in vivo; conditions: application rate 4 ppm, after 14 days, bean plants in soil
Description: 6. Tetranychus urticae—Drench Test, OP-Resistant Solvent: 7 parts by weight of dimethylformamide Emulsifier: 2 parts by weight of alkylaryl polyglycol ether
To produce a suitable preparation of active compound, 1 part by weight of active compound is mixed with the stated amounts of solvent and emulsifier, and the concentrate is diluted with water to the desired concentration, where the volume of soil to be drenched has to be taken into account. Here, it has to be made sure that a concentration of 40 ppm of emulsifier in the soil is not exceeded. To produce further test concentrations, the mixture is diluted with water.
Bean plants (Phaseolus vulgaris) in pots filled with soil, which plants are heavily infested by all stages of the greenhouse red spider mite (Tetranychus urticae), are watered with an active compound preparation of the desired concentration.
After 14 days, the efficacy in % is assessed. 100% means that all spider mites have been killed; 0% means that none of the spider mites have been killed.

Panonychus ulmi = Panonychus ulmi spray test; type: in vivo; conditions: application rate 20 ppm, after 14 days, plum trees
Description: 8. Panonychus ulmi—Spray Test Solvent: 7 parts by weight of dimethylformamide Emulsifier: alkylaryl polyglycol ether To produce a suitable preparation of active compound, 1 part by weight of active compound is dissolved in the parts by weight of solvent stated and filled with water containing an emulsifier concentration of 1000 ppm until the desired concentration is reached. To prepare further test concentrations, the mixture is diluted with emulsifier-containing water. If the addition of ammonium salts and/or penetrants (rapeseed oil methyl ester) is required, these are, after dilution of the finished preparation solution, added using a pipette, at a concentration of in each case 1000 ppm. Plum trees (Prunus domestica), infested by a mixed population of the European red mite (Panonychus ulmi) are treated by spraying with the active compound preparation of the desired concentration. After 14 days, the kill in % is determined. 100% means that all spider mites have been killed; 0% means that none of the spider mites have been killed.

Meloidogyne incognita [5] = assay: Meloidogyne incognita test (sand, lettuce, solvent acetone); type: in vivo; conditions: application rate 20 ppm, after 14 days, lettuce in sand
Description: 2. Meloidogyne incognita Test Solvent: 125.0 parts by weight of acetone To produce a suitable preparation of active compound, 1 part by weight of active compound is mixed with the stated amount of solvent and the concentrate is diluted with water to the desired concentration. Vessels are filled with sand, active compound solution, an egg/larvae suspension of the southern root-knot nematode (Meloidogyne incognita) and lettuce seeds. The lettuce seeds germinate and the plants develop. The galls develop on the roots. After 14 days, the nematicidal efficacy in % is determined by the formation of galls. 100% means that no galls were found; 0% means that the number of galls on the treated plants corresponds to the untreated control.

Boophilus microplus = Boophilus microplus injection test; type: in vivo; conditions: application rate, injection into engorged adult female cattle ticks, after 7 days
Description: 1. Boophilus microplus—Injection Test Solvent: dimethyl sulphoxide
To produce a suitable preparation of active compound, 10 mg of active compound are mixed with 0.5 ml of solvent and the concentrate is diluted with solvent to the desired concentration.
1 μl of the active compound solution is injected into the abdomen of 5 engorged adult female cattle ticks (Boophilus microplus). The animals are transferred into dishes and kept in a climate-controlled room.
Efficacy is assessed after 7 days by laying of fertile eggs. Eggs which are not visibly fertile are stored in a climate-controlled cabinet until the larvae hatch after about 42 days. An efficacy of 100% means that none of the ticks has laid any fertile eggs; 0% means that all the eggs are fertile.

Tetranychus urticae [6] = assay: Tetranychus urticae spray test, OP-resistant (bean plants); type: in vivo; conditions: application rate 20 ppm, after 7 days
Description: 5. Tetranychus urticae-Spray Test, OP-Resistant Solvent: 7 parts by weight of dimethylformamide Emulsifier: alkylaryl polyglycol ether
as §1, with “water. If the addition of ammonium salts or/and penetrants is required, these are each added in a concentration of 1000 ppm to the preparation solution.” for “water.”
Bean plants (Phaseolus vulgaris) heavily infested by all stages of the greenhouse red spider mite (Tetranychus urticae) are sprayed with an active compound preparation of the desired concentration.
After 7 days, the efficacy in % is determined. 100% means that all the spider mites have been killed; 0% means that none of the spider mites have been killed.

- chromatographic logP ([1]; acidic range, pH 2.7, 0.1% aqueous formic acid/acetonitrile, read-out: logP (HCOOH) = logP[a]): 1.77
- chromatographic logP ([1]; neutral range, pH 7.8, 0.001 molar aqueous ammonium hydrogencarbonate/acetonitrile, read-out: logP (neutral) = logP[b]): 1.75
Compound: Cc1cc(F)c(-c2cc(=O)n(C)c(=O)n2C)cc1[S+]([O-])CC(F)(F)F (stereo not drawn) [Example I-1, 6-{2-Fluoro-4-methyl-5-[(2,2,2-trifluoroethyl)sulphinyl]phenyl}-1,3-dimethylpyrimidine-2,4(1H,3H)-dione]
- efficacy (spider mites killed) (Tetranychus urticae [2]): 100%
- nematicidal efficacy (formation of galls) (Meloidogyne incognita [3]): 90%
- efficacy (spider mites killed) (Tetranychus urticae [4]): 100%
- efficacy (kill of spider mites) (Panonychus ulmi): 100%
- nematicidal efficacy (formation of galls) (Meloidogyne incognita [5]): 100%
- efficacy (no fertile eggs laid) (Boophilus microplus): 100%
- efficacy (spider mites killed) (Tetranychus urticae [6]): 100%
